Results published in patent US20140328809A1, “METHODS OF INDUCING CHONDROGENESIS IN MESENCHYMAL STEM CELLS USING SYNTHETIC TRITERPENOIDS” (TRUSTEES OF DARTMOUTH COLLEGE, priority 2011, published 2014).

What was measured:
SOX-9 = assay: Quantitative RT-PCR analysis on calvaria: SOX-9; format: cell-based, mouse; conditions: 7 days of culture, normalized to control = 1.00
Description: (§1) All chemicals were from Sigma-Aldrich. Primers for RT-PCR were from Applied Biosystems. The isolation of calvaria was essentially performed as described previously (Garrett, 2003; Garret et al., 2003). The calvaria were cultured in Biggers, Gwatkins, Judah medium supplemented with 1 mg/mL of bovine serum albumin (Cohn fraction V), 100 U/mL each of penicillin/streptomycin, and 0.292 mg/mL of glutaimine. On Day 1, the calvaria were treated with CDDO-Im or CDDO-EA. On Day 4, the medium was replaced with fresh medium, again containing either CDDO-Im or CDDO-EA. On Day 7, the calvaria were collected and either stored at −80° C. for further RNA analysis or fixed in 10% buffered formalin for 24 h and transferred to 80% ethanol for histological analysis.
(§2) After 7 days of culture, RNA was isolated from the calvaria and quantitative RT-PCR analysis was performed for more than 15 different markers including: SOX9 (a transcription factor specific for cartilage), collagen type II (alpha 1), all three isoforms of TGF-β, BMPs 2 and 4, BMP receptor II, Smads 3, 4, 6, and 7, tissue inhibitors of metalloproteinases (TIMP-1 and TIMP-2), and matrix metalloproteinase-9 (MMP-9). […] Both triterpenoids are strong inhibitors of the expression of MMP-9; CDDO-EA (200 nM), caused almost 80% inhibition of the expression of this metalloproteinase, which is known to be involved in the degradation of cartilage (Shinoda et al., 2008).

Col II alpha1 = assay: Quantitative RT-PCR analysis on calvaria: Col II alpha1; format: cell-based, mouse; conditions: 7 days of culture, normalized to control = 1.00
Description: as §1, §2

TGF-β1 = assay: Quantitative RT-PCR analysis on calvaria: TGF-β1; format: cell-based, mouse; conditions: 7 days of culture, normalized to control = 1.00
Description: as §1, §2

TGF-β2 = assay: Quantitative RT-PCR analysis on calvaria: TGF-β2; format: cell-based, mouse; conditions: 7 days of culture, normalized to control = 1.00
Description: as §1, §2

TGF-β3 = assay: Quantitative RT-PCR analysis on calvaria: TGF-β3; format: cell-based, mouse; conditions: 7 days of culture, normalized to control = 1.00
Description: as §1, §2

BMP-2 = assay: Quantitative RT-PCR analysis on calvaria: BMP-2; format: cell-based, mouse; conditions: 7 days of culture, normalized to control = 1.00
Description: as §1, §2

BMP-4 = assay: Quantitative RT-PCR analysis on calvaria: BMP-4; format: cell-based, mouse; conditions: 7 days of culture, normalized to control = 1.00
Description: as §1, §2

BMPRII = assay: Quantitative RT-PCR analysis on calvaria: BMPRII; format: cell-based, mouse; conditions: 7 days of culture, normalized to control = 1.00
Description: as §1, §2

Smad3 = assay: Quantitative RT-PCR analysis on calvaria: Smad3; format: cell-based, mouse; conditions: 7 days of culture, normalized to control = 1.00
Description: as §1, §2

Smad4 = assay: Quantitative RT-PCR analysis on calvaria: Smad4; format: cell-based, mouse; conditions: 7 days of culture, normalized to control = 1.00
Description: as §1, §2

Smad6 = assay: Quantitative RT-PCR analysis on calvaria: Smad6; format: cell-based, mouse; conditions: 7 days of culture, normalized to control = 1.00
Description: as §1, §2

Smad7 = assay: Quantitative RT-PCR analysis on calvaria: Smad7; format: cell-based, mouse; conditions: 7 days of culture, normalized to control = 1.00
Description: as §1, §2

TIMP-1 = assay: Quantitative RT-PCR analysis on calvaria: TIMP-1; format: cell-based, mouse; conditions: 7 days of culture, normalized to control = 1.00
Description: as §1, §2

TIMP-2 = assay: Quantitative RT-PCR analysis on calvaria: TIMP-2; format: cell-based, mouse; conditions: 7 days of culture, normalized to control = 1.00
Description: as §1, §2

MMP-9 = assay: Quantitative RT-PCR analysis on calvaria: MMP-9; format: cell-based, mouse; conditions: 7 days of culture, normalized to control = 1.00
Description: as §1, §2

newborn mouse calvaria = assay: Histological analysis (toluidine blue) of chondrogenesis in newborn mouse calvarial organ cultures; format: cell-based; conditions: 200 nM, 7 days, FIG. 1a, at least 3 sets of replicate experiments
Description: as §1
(§3) After fixation for 24 h, the calvaria were decalcified in EDTA, embedded in paraffin, and cut into 4 μm sections. The sections were stained either with modified hematoxylin and eosin or with toluidine blue (1% in 70% ethanol for 20 min, followed by destaining in 70%, 90%, and 100% ethanol for 15 seconds), placed in xylene twice, and then mounted (Garret, 2003). Procedures for immunofluroescence were performed essentially as previously described (Medici et al., 2010). […]

[1] = tested on: collagen type II (COL2A1); assay: Immunohistochemical analysis of collagen type II in calvaria; format: cell-based, mouse; conditions: 200 nM, FIG. 1b
Description: as §1, §3

SOX9 = assay: Western blot of chondrocyte marker SOX9 in bone marrow-derived MSCs; format: cell-based, human; conditions: 100 nM for 7 days; MSCs in chondrogenic culture medium; not detectable in control
Description: (§4) Human bone marrow-derived stromal cells (ScienCell Research Laboratories), which contain a population of responsive mesenchymal stem cells, were grown in mesenchymal stem cell medium (ScienCell Research Laboratories). MSCs were serum-starved 24 hours prior to all experimental conditions. The synthesis of the synthetic triterpenoids, CDDO-Im and CDDO-EA, have been previously described (Sporn et al., 2011).
(§5) For directed chondrocytic differentiation, MSCs were grown in StemPro chondrogenic culture medium (Invitrogen) prepared by the technique of Kassem (2004), which is incorporated herein by reference. See also Medici et al. (2010), which is also incorporated herein by reference. CDDO-Im and CDDO-EA were added to the cultures at a concentration of 100 nM for 7 days. Western blot analysis was performed using the following antibodies at concentrations (and using protocols) recommended by the respective manufacturers: SOX9, COL2A1 (Santa Cruz Biotechnology), Aggrecan (Abcam), β-actin (Sigma-Aldrich). β-actin was used as a loading control. HRP-conjugated IgG TrueBlot reagents (eBioscience) were used at a dilution of 1:1000.

COL2A1 = assay: Western blot of chondrocyte marker COL2A1 in bone marrow-derived MSCs; format: cell-based, human; conditions: 100 nM for 7 days; MSCs in chondrogenic culture medium; not detectable in control
Description: as §4, §5

Aggrecan = assay: Western blot of chondrocyte marker Aggrecan in bone marrow-derived MSCs; format: cell-based, human; conditions: 100 nM for 7 days; MSCs in chondrogenic culture medium; not detectable in control
Description: as §4, §5

For `CC1(C)CC[C@]2(C(=O)n3ccnc3)CC[C@]3(C)[C@H](C(=O)C=C4[C@@]5(C)C=C(C#N)C(=O)C(C)(C)[C@@H]5CC[C@]43C)[C@@H]2C1` [CDDO-Im, CDDO-Imidazolide], the “SOX-9 expression (quantitative RT-PCR)” value (SOX-9; 50 nM) was 1.26 ± 0.08, the “SOX-9 expression (quantitative RT-PCR)” value (SOX-9; 200 nM) was 1.33 ± 0.05 and the “SOX-9 expression (quantitative RT-PCR)” value (SOX-9; 500 nM) was 1.83 ± 0.13. The “Col II alpha1 expression (quantitative RT-PCR)” value (“Col II alpha1 expression” for short) (Col II alpha1; 50 nM) was 1.45 ± 0.09, the “Col II alpha1 expression” value (Col II alpha1; 200 nM) was 1.32 ± 0.23 and the “Col II alpha1 expression” value (Col II alpha1; 500 nM) was 1.72 ± 0.39. For the same compound, the “TGF-β1 expression (quantitative RT-PCR)” value (TGF-β1; 50 nM) was 0.96 ± 0.07, the “TGF-β1 expression (quantitative RT-PCR)” value (TGF-β1; 200 nM) was 1.08 ± 0.12 and the “TGF-β1 expression (quantitative RT-PCR)” value (TGF-β1; 500 nM) was 1.46 ± 0.12. The “TGF-β2 expression (quantitative RT-PCR)” value (TGF-β2; 50 nM) was 1.17 ± 0.05, the “TGF-β2 expression (quantitative RT-PCR)” value (TGF-β2; 200 nM) was 1.15 ± 0.09 and the “TGF-β2 expression (quantitative RT-PCR)” value (TGF-β2; 500 nM) was 1.17 ± 0.10. For the same compound, the “TGF-β3 expression (quantitative RT-PCR)” value (TGF-β3; 50 nM) was 1.30 ± 0.07, the “TGF-β3 expression (quantitative RT-PCR)” value (TGF-β3; 200 nM) was 1.52 ± 0.16 and the “TGF-β3 expression (quantitative RT-PCR)” value (TGF-β3; 500 nM) was 1.66 ± 0.13. For the same compound, the “BMP-2 expression (quantitative RT-PCR)” value (BMP-2; 50 nM) was 1.17 ± 0.07, the “BMP-2 expression (quantitative RT-PCR)” value (BMP-2; 200 nM) was 1.60 ± 0.19 and the “BMP-2 expression (quantitative RT-PCR)” value (BMP-2; 500 nM) was 3.14 ± 0.53. For the same compound, the “BMP-4 expression (quantitative RT-PCR)” value (BMP-4; 50 nM) was 0.97 ± 0.05, the “BMP-4 expression (quantitative RT-PCR)” value (BMP-4; 200 nM) was 0.98 ± 0.06 and the “BMP-4 expression (quantitative RT-PCR)” value (BMP-4; 500 nM) was 1.35 ± 0.22. The “BMPRII expression (quantitative RT-PCR)” value (BMPRII; 50 nM) was 1.09 ± 0.06, the “BMPRII expression (quantitative RT-PCR)” value (BMPRII; 200 nM) was 1.22 ± 0.11 and the “BMPRII expression (quantitative RT-PCR)” value (BMPRII; 500 nM) was 1.46 ± 0.14. For the same compound, the “Smad3 expression (quantitative RT-PCR)” value (Smad3; 50 nM) was 0.97 ± 0.07, the “Smad3 expression (quantitative RT-PCR)” value (Smad3; 200 nM) was 0.90 ± 0.05 and the “Smad3 expression (quantitative RT-PCR)” value (Smad3; 500 nM) was 1.35 ± 0.19. For the same compound, the “Smad4 expression (quantitative RT-PCR)” value (Smad4; 50 nM) was 0.96 ± 0.06, the “Smad4 expression (quantitative RT-PCR)” value (Smad4; 200 nM) was 1.03 ± 0.09 and the “Smad4 expression (quantitative RT-PCR)” value (Smad4; 500 nM) was 1.26 ± 0.09. For the same compound, the “Smad6 expression (quantitative RT-PCR)” value (Smad6; 50 nM) was 0.95 ± 0.05, the “Smad6 expression (quantitative RT-PCR)” value (Smad6; 200 nM) was 1.23 ± 0.14 and the “Smad6 expression (quantitative RT-PCR)” value (Smad6; 500 nM) was 1.77 ± 0.19. The “Smad7 expression (quantitative RT-PCR)” value (Smad7; 50 nM) was 1.05 ± 0.07, the “Smad7 expression (quantitative RT-PCR)” value (Smad7; 200 nM) was 1.32 ± 0.14 and the “Smad7 expression (quantitative RT-PCR)” value (Smad7; 500 nM) was 1.78 ± 0.18. The “TIMP-1 expression (quantitative RT-PCR)” value (TIMP-1; 50 nM) was 1.43 ± 0.19, the “TIMP-1 expression (quantitative RT-PCR)” value (TIMP-1; 200 nM) was 1.83 ± 0.18 and the “TIMP-1 expression (quantitative RT-PCR)” value (TIMP-1; 500 nM) was 3.00 ± 0.65. The “TIMP-2 expression (quantitative RT-PCR)” value (TIMP-2; 50 nM) was 1.24 ± 0.10, the “TIMP-2 expression (quantitative RT-PCR)” value (TIMP-2; 200 nM) was 1.67 ± 0.19 and the “TIMP-2 expression (quantitative RT-PCR)” value (TIMP-2; 500 nM) was 2.62 ± 0.29. The “MMP-9 expression (quantitative RT-PCR)” value (MMP-9; 50 nM) was 0.73 ± 0.16, the “MMP-9 expression (quantitative RT-PCR)” value (MMP-9; 200 nM) was 0.44 ± 0.12 and the “MMP-9 expression (quantitative RT-PCR)” value (MMP-9; 500 nM) was 0.26 ± 0.03. For the same compound, the “induction of chondrogenesis (metachromatic toluidine blue purple staining, proteoglycans)” value (newborn mouse calvaria) was “marked ability to induce chondrogenesis”, the “formation of collagen type II (COL2A1), red fluorescence” value [1] was “induce the formation of collagen type II” and the “induction of SOX9 (Western blot)” value (SOX9) was “clear induction”. For the same compound, the “induction of COL2A1 (Western blot)” value (COL2A1) was “clear induction” and the “induction of Aggrecan (Western blot)” value (Aggrecan) was “clear induction”.
